# Reference: US20090282496A1, “Androgen Receptor Related Methods for Treating Bladder Cancer” (University of Rochester Medical Center, priority 2008, published 2009)
# Marks after values point to notes of the source that are not given here.
# How the values were obtained:
# TCC-SUP xenograft tumors = test: TCC-SUP mouse xenograft, tumor progression study; format: in vivo, male athymic nude mouse
# Excerpt: Total RNA from mouse bladder and xenograft tumor tissues and cultured cells was extracted by the acid guanidinium-phenol-chloroform method as previously described (Miyamoto et al., Cancer, 75:2565-70 (1995)) or by using Trizol reagent (Life Science). Isolated RNAs were reverse transcribed to cDNA using random hexamers as described (Miyamoto et al., Cancer, 75:2565-70 (1995) and Miyoshi et al., Prostate, 56:280-6 (2003)), and amplified by PCR using a primer set specific for the AR gene (Miyoshi et al., Prostate, 56:280-6 (2003)). Using the iCycler (Bio-Rad) and the methods previously described by Miyoshi et al., Prostate, 56:280-6 (2003), real-time quantitative PCR analysis of AR, basic fibroblast growth factor (bFGF), vascular endothelial growth factor (VEGF), and matrix metalloproteinase-9 (MMP-9) was performed on the tissue samples from mouse xenograft tumors. The following PCR primers were designed using Beacon Designer 2 (Premier Biosoft): bFGF: 5′-[…]-3′ (SEQ ID NO. 1) and 5′-[…]-3′ (SEQ ID NO. 2), VEGF: 5′-[…]-3′ (SEQ ID NO. 3) and 5′-[…]-3′ (SEQ ID NO. 4), and MMP-9: 5′-[…]-3′ (SEQ ID NO. 5) and 5′-[…]-3′ (SEQ ID NO. 6). β-actin was used as an internal control.
# (§1) Bladder cancer cell lines (TCC-SUP, UMUC3, and 5637) were harvested, washed twice with PBS, and resuspended in Matrigel (BD Bioscience) at a final concentration of 1×10^7 cells/mL. Cells (1×10^6 cells in 100 μl per site) were then injected subcutaneously into the right and left flanks of 6-week-old male athymic nude mouse. Treatment (castration or sham surgery, flutamide [0.5 mg/mouse] or placebo pellet injection, and the recently developed anti-AR molecule ASC-J9 (50 mg/Kg or DMSO injection) (Ohtsu et al., J. Med. Chem., 45:5037-42 (2002)) was initiated either (1) at the same time as tumor cell injection (for tumor incidence studies, n=8 mice in each group) or (2) when the sizes of all tumors reached 40 mm^3 (for tumor progression studies, n=12 tumors from 6 mice in each group). Hormonal pellets were replaced as required (every 90 days). Tumor weight was calculated by the following formula: tumor weight (mg)=tumor length (mm)×[tumor width (mm)]^2×0.5 (Geram et al., Cancer Chemother. Rep., 3:47-52 (1972)). Using calipers, each tumor was measured twice a week until either the tumor size reached 40 mm^3 (for tumor incidence study) (Chen et al., Nat. Med., 10:33-9 (2004)), or until the tumor exceeded 10% of the animal's body weight, at which time the mouse was killed (for tumor progression study).
# [1] = system: AR-negative 5637 xenograft tumors; test: 5637 mouse xenograft, tumor progression study; format: in vivo, male athymic nude mouse; conditions: androgen deprivation therapy (castration and/or flutamide) at 12 weeks
# Method: Bladder cancer cell lines (TCC-SUP, UMUC3, and 5637) were harvested, washed twice with PBS, and resuspended in Matrigel (BD Bioscience) at a final concentration of 1×10^7 cells/mL. Cells (1×10^6 cells in 100 μl per site) were then injected subcutaneously into the right and left flanks of 6-week-old male athymic nude mouse. […] Med. […] Hormonal pellets were replaced as required (every 90 days). Tumor weight was calculated by the following formula: tumor weight (mg)=tumor length (mm)×[tumor width (mm)]^2×0.5 (Geram et al., Cancer Chemother. Rep., 3:47-52 (1972)).
# [2] = system: TCC-SUP and UMUC3 stable sublines (control-siRNA, AR-siRNA); test: Tumor incidence (tumorigenicity) study of control-siRNA and AR-siRNA sublines in nude mice; format: in vivo, male athymic nude mouse
# Excerpt: The reporter plasmids [mouse mammary tumor virus (MMTV)-luciferase (Luc) and (ARE)4-Luc (provided by Dr. Michael L. Lu at Harvard Medical School)] as well as a retrovirus vector pMSCV/U6 (Clontech)-AR-siRNA were described in previous studies (Miyamoto et al., Int. J. Cancer, 117:866-72 (2005) and Yeh et al., J. Exp. Med. 198:1899-908 (2003)). Using SuperFect reagent (Qiagen), stable cell lines expressing the AR-siRNA were established by transfecting pMSCV/U6-AR-siRNA into Phi-NX packaging retrovirus producer cells (developed by the Nolan Lab at Stanford University). The target cells (i.e., TCC-SUP, UMUC3, and 5637) were then cultured in the presence of the viral supernatant, and infected cells were selected with puromycin (Sigma).
# as §1
# [3] = system: BBN-induced bladder tumors; test: BBN-induced mouse bladder cancer model (tumor incidence; PCNA and TUNEL indexes of tumors); conditions: for Carcinoma, No. (%) / Preneoplastic lesions, No. (%): 0.05% BBN
# Method: (§2) Animal care was provided in accordance with institutional guidelines. Five to six weeks old ARKO mice (male: n=48; female: n=24) and their wild-type littermates (male: n=48; female: n=24) were supplied ad libitum with tap water containing 0.05% BBN (TCI America) in opaque bottles for 12 weeks, and thereafter with tap water without BBN. To estimate BBN intake, the drinking water was prepared fresh twice a week, and consumption was recorded. […] Before starting BBN treatment, wild-type male mice received surgical castration (n=24) or sham surgery (n=24) at 5 weeks of age. […] Every 90 days, these pellets were replaced. At 20 (n=4 in each group), 30 (n=8 in each group), or 40 (n=12 in each group) weeks of age, the mice were killed by administration of pentobarbital followed by rapid cervical dislocation. Urinary tract specimens were harvested. These specimens were preserved in phosphate-buffered 10% formalin, embedded in paraffin, sectioned, stained with hematoxylin and eosin, and examined microscopically to identify carcinoma or other pathological changes. Paraffin-embedded sections were also used for immunohistochemical analysis. Part of each specimen was rapidly frozen in liquid nitrogen and stored at −80° C. for subsequent RNA analysis.
# (§3) Sections (5-7 μm thick) from paraffin-embedded mouse urinary tract tissue and xenograft tumors (see below) were deparaffinized in xylene and rehydrated in a graded ethanol series. Sections were then incubated in 3% hydrogen peroxide to block endogenous peroxidase, with a protein blocking solution containing preimmune rabbit serum, and finally with a 1:500 dilution of primary antibody (rabbit polyclonal anti-proliferating cell nuclear antigen (PCNA) (Santa Cruz). Samples were incubated with peroxidase-conjugated anti-rabbit IgG. The slides were rinsed with PBS, incubated with diaminobenzidine, and finally counterstained with hematoxylin. The TUNEL assay was performed on additional rehydrated sections from paraffin-embedded mouse urinary tract tissue and xenograft tumor using the Fluorescein-FragEL DNA Fragmentation Detection kit (Calbiochem), according to the manufacturer's instructions, followed by counterstaining for DNA with DAPI. The percentage of apoptotic cells was determined by fluorescence microscopy. The percentage of PCNA- and TUNEL-positive cells in 1000 cells counted on each specimen were used to determine the amount of cell proliferation and apoptotic indices, respectively.
# UMUC3 cells = test: Cell proliferation assay (MTT), UMUC3; format: cell-based, human; conditions: 6 days; for effect on growth: UMUC3 subline that expresses AR-siRNA
# [4] = system: AR-negative bladder cancer cell lines (5637); test: Cell proliferation assay (MTT), AR-negative bladder cancer cell lines; format: cell-based, human; conditions: AR-negative 5637 subline that expresses AR-siRNA, 6 days
# TCC-SUP cells = test: Cell proliferation assay (MTT), TCC-SUP; format: cell-based, human; conditions: 6 days; for effect on growth: TCC-SUP subline that expresses AR-siRNA
# [5] = system: BBN-induced bladder tumors; conditions: mouse, in vivo
# Method: as §2, §3
# [6] = system: BBN-induced bladder tumors; conditions: wild-type mice, drinking water with BBN at 0.01-0.05% for 10-20 weeks; previous studies; cited from earlier work
# [7] = system: BBN-induced bladder cancer; conditions: rats; castration had a much stronger effect; cited from earlier work
# AR = molecular target: T1, AR (Homo sapiens, UniProt P10275); conditions: TCC-SUP and UMUC3 cells, MMTV-Luc, 24 h
# T1 sequence (P10275 1-920): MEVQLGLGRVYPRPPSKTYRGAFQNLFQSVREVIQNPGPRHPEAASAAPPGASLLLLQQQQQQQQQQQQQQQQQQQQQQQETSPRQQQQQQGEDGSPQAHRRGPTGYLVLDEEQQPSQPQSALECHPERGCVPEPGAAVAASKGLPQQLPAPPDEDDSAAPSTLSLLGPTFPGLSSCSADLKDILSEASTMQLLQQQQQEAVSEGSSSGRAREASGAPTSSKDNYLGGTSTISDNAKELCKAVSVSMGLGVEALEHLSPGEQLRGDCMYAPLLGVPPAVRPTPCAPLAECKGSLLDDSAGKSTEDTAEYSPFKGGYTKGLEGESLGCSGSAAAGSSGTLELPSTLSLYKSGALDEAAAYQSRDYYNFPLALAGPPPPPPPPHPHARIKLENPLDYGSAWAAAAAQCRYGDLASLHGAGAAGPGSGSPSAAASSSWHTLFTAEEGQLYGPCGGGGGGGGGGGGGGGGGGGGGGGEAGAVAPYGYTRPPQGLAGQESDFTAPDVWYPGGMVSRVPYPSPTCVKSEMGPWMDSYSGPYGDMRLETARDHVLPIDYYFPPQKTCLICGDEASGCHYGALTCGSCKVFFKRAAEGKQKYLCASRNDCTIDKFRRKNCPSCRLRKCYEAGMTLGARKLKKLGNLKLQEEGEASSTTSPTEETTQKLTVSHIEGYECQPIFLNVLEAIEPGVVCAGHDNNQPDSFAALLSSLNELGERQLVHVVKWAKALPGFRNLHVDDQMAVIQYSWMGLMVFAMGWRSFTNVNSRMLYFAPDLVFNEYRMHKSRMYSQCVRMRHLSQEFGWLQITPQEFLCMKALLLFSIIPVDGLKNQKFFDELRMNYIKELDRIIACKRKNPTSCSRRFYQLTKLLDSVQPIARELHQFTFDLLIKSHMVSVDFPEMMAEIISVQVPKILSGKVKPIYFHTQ
# Method: Cell transfections and luciferase assays were performed as previously described (Miyamoto et al., Int. J. Cancer, 117:866-72 (2005) and Miyamoto et al., Proc. Natl. Acad. Sci. USA, 100:4440-4 (2003)). Briefly, bladder cancer cells at a density of 50-60% confluence in 12-well tissue culture plates were transfected with 1.5 μg of plasmid DNA using SuperFect transfection reagent (Qiagen) according to the manufacturer's instructions. […] Cells were harvested, lysed, and assayed for luciferase activity. A Dual-Luciferase Reporter Assay kit (Promega) and luminometer (TD-20/20, Turner BioSystems) were used to determine the level of luciferase activity in the cell extracts.
# [8] = harvested TCC-SUP tumors, real-time RT-PCR
# [9] = ARKO male mice + DHT pellet 1.5 mg/mouse/90 days, age 20 weeks
# [10] = ARKO male mice + DHT pellet, age 30 weeks
# [11] = ARKO male mice + DHT pellet, age 40 weeks
# [12] = male ARKO mice treated with BBN and DHT, 40 weeks
# [13] = harvested TCC-SUP tumors, ASC-J9 50 mg/Kg
structure (smiles),measurement,setting,value
"CC(C)C(=O)Nc1ccc([N+](=O)[O-])c(C(F)(F)F)c1 [flutamide, Flutamide]",tumor size vs. control mice,"TCC-SUP xenograft tumors; castration and/or antiandrogen (flutamide pellet), at 16 weeks",statistically significantly smaller
same,"levels of angiogenic factors and metastasis-related factors (bFGF, VEGF, MMP-9) in tumors",TCC-SUP xenograft tumors; [8],reduced
same,reduction in tumor size,[1],up to 12%
same,tumorigenicity of AR-expressing (control-siRNA-transfected) bladder cancer,[2]; androgen deprivation (castration or flutamide pellet),suppressed tumorigenicity
same,development of AR-siRNA-expressing tumors,[2]; castration and flutamide treatment,little effect
"C[C@]12CCC(=O)C[C@@H]1CC[C@@H]1[C@@H]2CC[C@]2(C)[C@@H](O)CC[C@@H]12 [DHT, dihydrotestosterone]","Carcinoma, No. (%)",[3]; [9],0 (0) No. (%)
same,"Preneoplastic lesions, No. (%)",[3]; [9],0 (0) No. (%)
same,"Carcinoma, No. (%)",[3]; [10],1 (0)∵ No. (%)
same,"Preneoplastic lesions, No. (%)",[3]; [10],3 (38) No. (%)
same,"Carcinoma, No. (%)",[3]; [11],3 (25)‡‡ No. (%)
same,"Preneoplastic lesions, No. (%)",[3]; [11],5 (42) No. (%)
same,carcinoma incidence,[3]; [12],25%
same,preneoplastic lesions incidence,[3]; [12],42%
same,increase of cell growth,"UMUC3 cells; UMUC3, 1 nM DHT, vs. ETOH",45%
same,effect on growth,UMUC3 cells,did not affect the growth
same,effect on growth,[4],did not affect the growth
same,effect on growth,TCC-SUP cells,did not affect the growth
same,increase of cell growth,"TCC-SUP cells; TCC-SUP, 1 nM DHT, vs. ETOH",55%
"CCCCN(CCCCO)N=O [BBN, N-butyl-N-(4-hydroxybutyl)nitrosamine]","hyperplasia in the bladder, incidence",[5],17%
same,invasive carcinoma incidence,[5],50%
same,preneoplastic bladder lesions incidence,[5],50-67%
same,preneoplastic lesions (hyperplasias or papillomas) incidence,[5],75%
same,frequency of bladder carcinomas by 40 weeks,[6],30-100%
"CC(C)(C)NC(=O)[C@H]1CC[C@H]2[C@@H]3CC[C@H]4NC(=O)C=C[C@]4(C)[C@H]3CC[C@]12C [finasteride, Finasteride]",development of BBN-induced bladder cancer,[7],only slightly suppressed
"COc1ccc(C=CC(=O)C=C(O)C=Cc2ccc(OC)c(OC)c2)cc1OC [ASC-J9, 5-hydroxy-1,7-bis(3,4-dimethoxyphenyl)-1,4,6-heptatrien-3-one]",reduction in tumor size,"TCC-SUP xenograft tumors; ASC-J9 50 mg/Kg intraperitoneal every other day, over 16 weeks of treatment",58%
same,apoptotic index of harvested tumors,TCC-SUP xenograft tumors; [13],increased
same,proliferation index of harvested tumors,TCC-SUP xenograft tumors; [13],decreased
same,"levels of angiogenic factors and metastasis-related factors (bFGF, VEGF, MMP-9) in tumors",TCC-SUP xenograft tumors; [8],reduced
same,reduction of AR expression in tumors,"TCC-SUP xenograft tumors; harvested TCC-SUP tumors, real-time RT-PCR, ASC-J9 50 mg/Kg",39%
same,latency of tumor formation,"[2]; vs. control-siRNA cells with control treatment, treatment from tumor cell implantation, tumor positive at 40 mm3",substantially prolonged
same,effect on DHT-simulated growth,"UMUC3 cells; UMUC3, 1 μM ASC-J9 + 1 nM DHT",inhibited
same,effect on DHT-simulated growth,"TCC-SUP cells; TCC-SUP, 1 μM ASC-J9 + 1 nM DHT",inhibited
"CC(C)(O)C(=O)Nc1ccc([N+](=O)[O-])c(C(F)(F)F)c1 [HF, hydroxyflutamide]",effect on DHT-induction of luciferase,AR; 5 μM HF + 1 nM DHT,clearly inhibited
same,agonist activity alone (luciferase),AR; 5 μM HF alone,only marginal agonist activity
same,reduction of the DHT effect on cell growth,"UMUC3 cells; UMUC3, 5 μM HF + 1 nM DHT, range given for both lines",67-75%
same,effect on growth,UMUC3 cells,did not affect the growth
same,effect on cell proliferation,"UMUC3 cells; control (scrambled siRNA) UMUC3 subline, 1 nM DHT and/or 5 μM HF",antagonized the DHT effect
same,effect on growth,[4],did not affect the growth
same,effect on growth,TCC-SUP cells,did not affect the growth
same,reduction of the DHT effect on cell growth,"TCC-SUP cells; TCC-SUP, 5 μM HF + 1 nM DHT, range given for both lines",67-75%
same,effect on cell proliferation,"TCC-SUP cells; control (scrambled siRNA) TCC-SUP subline, 1 nM DHT and/or 5 μM HF",antagonized the DHT effect
